US20100105664A1, “ORGANIC COMPOUNDS” (priority 2006, published 2010)
Counter-ions that a name gives are not always drawn.

Biological target: T1, human MK2 (Homo sapiens, UniProt P49137)
T1 construct: made in house
Experiment: MAPKAPK2 (or MK2) Kinase Assay
Format: biochemical
Details: activated MAPKAPK2, Hsp27 peptide substrate, 5 μM ATP, TR-FRET
Experimental: MAPKAPK2 (or MK2) Kinase Assay
MAPAPK2 is pre-activated in kinase buffer (25 mM TRIS-HCL, pH 7.5, 25 mM beta-glycerophosphate, 0.1 mM sodium orthovanadate, 25 mM MgCl2, 20 μM DTT) containing 5 μM ATP, 150 μg/ml human MK2 (HPLC purified in house), 30 μg/ml active human p38α (HPLC purified in house) for 30 min at 22° C. For the measurement of compound inhibition on activated MAPAPK2, each reaction contained test compound (10 μl; 0.5% DMSO final) or vehicle control, 250 nM Hsp27 peptide biotinyl-AYSRALSRQLSSGVSEIR—COOH as substrate (10 μl) and pre-activated MAPKAP2 kinase mix (10 μl) containing ATP (5 μM final). To define non-specific, reactions are performed in the absence of substrate. Following incubation at 22° C. for 45 min, kinase reactions are terminated with 125 μM EDTA (10 μl). Samples (10 μl) are transferred to black low volume 384-well plates (Greiner) prior to the detection of phosphorylated substrate by time-resolved fluorescence resonance energy transfer (TR-FRET). Phosphorylated Hsp27 is measured using an antibody mix (10 μl) containing a rabbit anti-phospho-Hsp27 (Ser^82) antibody (2.5 nM, Upstate) in conjunction with an anti-rabbit europium-labeled secondary antibody LANCE Eu-W1024 (2.5 nM; Perkin Elmer) as fluorescence donor along with streptavidin SureLight-APC (6.25 nM; Perkin Elmer) as a fluorescence acceptor. Following incubation at 22° C. for 90 min, plates are measured at 615 and 665 nm using a PHERAstar (BMG Labtech). The 615/665 nm ratio is determined following subtraction of background. Values are expressed as % inhibition using control values. Individual IC50 values of compounds are determined by nonlinear regression after fitting of curves to the experimental data using Excel XL fit 4.0 (Microsoft).
For a number of compounds being identified by their example No. the efficacy is disclosed as being assessable by the above described MK2 kinase assay: […]

T1 sequence (P49137 whole entry): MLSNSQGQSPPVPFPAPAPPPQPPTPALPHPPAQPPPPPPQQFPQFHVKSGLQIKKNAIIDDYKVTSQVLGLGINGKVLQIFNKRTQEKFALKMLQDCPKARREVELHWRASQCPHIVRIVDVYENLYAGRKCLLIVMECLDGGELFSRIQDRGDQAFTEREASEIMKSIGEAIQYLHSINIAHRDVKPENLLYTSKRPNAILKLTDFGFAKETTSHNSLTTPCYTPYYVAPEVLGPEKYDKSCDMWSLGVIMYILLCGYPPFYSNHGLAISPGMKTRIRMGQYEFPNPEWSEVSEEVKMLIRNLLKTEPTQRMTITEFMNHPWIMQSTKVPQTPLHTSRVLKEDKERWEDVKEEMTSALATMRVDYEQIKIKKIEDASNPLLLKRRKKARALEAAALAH

NC(=O)c1cc(-c2ccnc(-c3ccc(C(=O)NC4CCCC4)cc3)c2)[nH]c1N1CCNCC1 [Example 55, 5-[2-(4-Cyclopentylcarbamoyl-phenyl)-pyridin-4-yl]-2-piperazin-1-yl-1H-pyrrole-3-carboxylic acid amide]
IC50: 260 nM

N#Cc1cc(-c2ccnc(/C=C/c3ccccc3)c2)[nH]c1CCN [Example 148, 2-(2-Amino-ethyl)-5-[2-((E)-styryl)-pyridin-4-yl]-1H-pyrrole-3-carbonitrile]
IC50: 150 nM

NC(=O)c1cc(-c2ccnc(/C=C/c3ccc(F)cc3)c2)[nH]c1N1CCNCC1 [Example 9, 5-{2-[(E)-2-(4-Fluoro-phenyl)-vinyl]-pyridin-4-yl}-2-piperazin-1-yl-1H-pyrrole-3-carboxylic acid amide]
IC50: 130 nM

NC(=O)c1cc(-c2ccnc(-c3ccc(N4CCCCC4)nc3)c2)[nH]c1N1CCNCC1 [Example 109, 2-Piperazin-1-yl-5-(3,4,5,6-tetrahydro-2H-[1,2′;5′,2″]terpyridin-4″-yl)-1H-pyrrole-3-carboxylic acid amide]
IC50: 160 nM

N#Cc1cc(-c2ccnc(/C=C/c3ccc(C(=O)N4CCOCC4)cc3)c2)[nH]c1N1CCNCC1 [Example 75, 5-(2-{(E)-2-[4-(Morpholine-4-carbonyl)-phenyl]-vinyl}-pyridin-4-yl)-2-piperazin-1-yl-1H-pyrrole-3-carbonitrile]
IC50: 150 nM

NC(=O)c1cc(-c2ccnc(-c3ccc(N4CCN(Cc5ccccc5)CC4)nc3)c2)[nH]c1N1CCNCC1 [Example 116, 5-[6′-(4-Benzyl-piperazin-1-yl)-[2,3′]bipyridinyl-4-yl]-2-piperazin-1-yl-1H-pyrrole-3-carboxylic acid amide]
IC50: 200 nM

NC(=O)c1cc(-c2ccnc(/C=C/c3cccnc3)c2)[nH]c1N1CCNCC1 [Example 81, 2-Piperazin-1-yl-5-[2-((E)-2-pyridin-3-yl-vinyl)-pyridin-4-yl]-1H-pyrrole-3-carboxylic acid amide]
IC50: 140 nM

NC(=O)c1cc(-c2ccnc(/C=C/c3ccccc3)c2)[nH]c1C1=CCNCC1 [Example 170, 5-[2-((E)-Styryl)-pyridin-4-yl]-2-(1,2,3,6-tetrahydro-pyridin-4-yl)-1H-pyrrole-3-carboxylic acid amide]
IC50: 270 nM

CN1CCN(c2ccc(-c3cc(-c4cc(C(N)=O)c(N5CCNCC5)[nH]4)ccn3)cn2)CC1 [Example 110, 5-[6′-(4-Methyl-piperazin-1-yl)-[2,3′]bipyridinyl-4-yl]-2-piperazin-1-yl-1H-pyrrole-3-carboxylic acid amide]
IC50: 150 nM

NC(=O)c1cc(-c2ccnc(Nc3cccc(S(=O)(=O)N4CCOCC4)c3)c2)[nH]c1N1CCNCC1 [Example 93, 5-{2-[3-(Morpholine-4-sulfonyl)-phenylamino]-pyridin-4-yl}-2-piperazin-1-yl-1H-pyrrole-3-carboxylic acid amide]
IC50: 90 nM

CN1CCC(Oc2ccc(-c3cc(-c4cc(C#N)c(N5CCNCC5)[nH]4)ccn3)cn2)CC1 [Example 105, 5-[6′-(1-Methyl-piperidin-4-yloxy)-[2,3′]bipyridinyl-4-yl]-2-piperazin-1-yl-1H-pyrrole-3-carbonitrile trifluoroacetate]
IC50: 70 nM

N#Cc1cc(-c2ccnc(-c3cnc(N4CCCOCC4)nc3)c2)[nH]c1N1CCNCC1 [Example 118, 5-[2-(2-[1,4]Oxazepan-4-yl-pyrimidin-5-yl)-pyridin-4-yl]-2-piperazin-1-yl-1H-pyrrole-3-carbonitrile trifluoroacetate]
IC50: 70 nM

NC(=O)c1cc(-c2ccnc(/C=C/c3ccccc3)c2)[nH]c1N1CCNCC1 [Example 14, 2-Piperazin-1-yl-5-[2-((E)-styryl)-pyridin-4-yl]-1H-pyrrole-3-carboxylic acid amide]
IC50: 120 nM

Cc1[nH]c(-c2ccnc(/C=C/c3ccc(CN4CCOCC4)cc3)c2)cc1C#N [Example 131, 2-Methyl-5-{2-[(E)-2-(4-morpholin-4-ylmethyl-phenyl)-vinyl]-pyridin-4-yl}-1H-pyrrole-3-carbonitrile]
IC50: 290 nM

N#Cc1cc(-c2ccnc(/C=C/c3ccccc3)c2)[nH]c1C1CCNCC1 [Example 144, 2-Piperidin-4-yl-5-[2-((E)-styryl)-pyridin-4-yl]-1H-pyrrole-3-carbonitrile]
IC50: 210 nM

NC(=O)c1cc(-c2ccnc(-c3ccc(S(=O)(=O)N4CCOCC4)cc3)c2)[nH]c1N1CCNCC1 [Example 51, 5-{2-[4-(Morpholine-4-sulfonyl)-phenyl]-pyridin-4-yl}-2-piperazin-1-yl-1H-pyrrole-3-carboxylic acid amide]
IC50: 50 nM

NC(=O)c1cc(-c2ccnc(/C=C/c3ccc(CN4CCOCC4)cc3)c2)[nH]c1N1CCNCC1 [Example 72, 5-{2-[(E)-2-(4-Morpholin-4-ylmethyl-phenyl)-vinyl]-pyridin-4-yl}-2-piperazin-1-yl-1H-pyrrole-3-carboxylic acid amide hydrobromide]
IC50: 100 nM

NCCc1[nH]c(-c2ccnc(/C=C/c3ccccc3)c2)cc1C(=O)O [Example 155, 2-(2-Amino-ethyl)-5-[2-((E)-styryl)-pyridin-4-yl]-1H-pyrrole-3-carboxylic acid]
IC50: 80 nM
